This is an account of results in patent US10610517B2, “Compositions and methods for treating neoplastic diseases” (Celgene International II Sàrl, priority 2004, dated 2020).

One experiment deals with Bax. Description: Immunoblot of Bax in mitochondrial protein extracts. Format: cell-based, human. Particulars: MM.1S cells; FIG. 12E. How it is done:
Immunoblot analysis was performed using antibodies to cytochrome-c, Smac, Caspase-8, -9, or -3 (Cell Signaling, Beverly, Mass.), tubulin (Sigma, St. Louis, Mo.), PARP, Hsp60, or Bax (BD Bioscience Pharmingen, San Diego, Calif.). Blots were developed by enhanced chemiluminesence (ECL; Amersham, Arlington Heights, Ill.).
Previous studies have established that Bax induces mitochondrial apoptotic pathway. See Wei, M. C., Zong, W. X., Cheng, E. H., Lindsten, T., Panoutsakopoulou, V., Ross, A. J., Roth, K. A., MacGregor, G. R., Thompson, C. B. & Korsmeyer, S. J. (2001) Science 292, 727-30 and Lei, K., Nimnual, A., Zong, W. X., Kennedy, N. J., Flavell, R. A., Thompson, C. […] Thus, whether MM cell apoptosis induced by the compound of formula (II) (X=Cl) correlates with alterations in Bax was evaluated. […] Blots are representatives of three independent experiments.
A general note: A western blot detects proteins with antibodies after separation by electrophoresis.

The test system of experiment [1] is 20S proteasome in white blood cell (WBC) lysates. Description: Ex vivo 20S proteasome activity in whole blood cells in mice. How it is done: To directly determine whether the compound of formula (II) (X=Cl) inhibits proteasome activity in vivo, the compound of formula (II) (X=Cl) was dissolved in 100% DMSO and serially diluted with 5% Solutol (Solutol® HS15; polyethylene glycol 660 12-hydroxystearate, BASF, Shreveport, La.) yielding a final concentration of 2% DMSO. The vehicle control consisted of 2% DMSO and 98% (5% Solutol® HS15). Male Swiss-Webster mice (five per group, 20-25 grams in weight) were treated at Bolder BioPATH, Inc. (Boulder, Colo.) with various concentrations of the compound either intravenously or orally at a volume of 10 mL/kg. One group of animals was untreated to establish a baseline of proteasome activity. Ninety minutes after administration of the compound, the animals were anesthetized and blood withdrawn by cardiac puncture. Packed whole blood cells were collected by centrifugation, washed with PBS, and frozen on dry ice for determination of ex vivo proteasome activity. Chymotrypsin-like activity of the 20S proteasome in white blood cell (WBC) lysates was determined using the peptide substrate suc-LLVY-AMC. Relative Fluoresence Units (RFU) were normalized using the protein concentrations of the cell lysates. The 20S proteasome activity of the individual mice is shown in FIG. 2 with the horizontal bar representing the average activity. […]

Take `CC12OC(=O)C1(C(O)C1C=CCCC1)NC(=O)C2CCCl` (stereo not drawn) [compound of formula (II) (X=Cl)]: in the experiment with Bax, the “Bax levels in mitochondria” value is on record as “little, if any increase in Bax levels in mitochondria”. The oral activity entry in experiment [1] (oral administration, mice) was “orally active”. For the same compound, the “Chymotrypsin-like activity of the 20S proteasome in WBC lysates” value in experiment [1] (single i.v. or oral administration, 90 minutes after administration, FIG. 2) is “inhibits chymotrypsin-like activity of 20S proteasomes in white blood cells in a dose-dependent manner”.
